Data set [1] concerns Trypanosoma cruzi. The data set can be described thus: Anti-protozoan action 1 (in vitro), T. cruzi-infected A204 cells. It is filed as cell-based. The arrangement: key: +++: same number of protozoa alive as control; ++: slightly less number alive than control; +: less number alive than control; ±: only a few alive; -: all dead. The note with it: A204 cells infected with T. cruzi, 37° C., 24 hours. As to the method: A204 cells (derived from a […]), which had been infected in advance with Trypanosoma cruzi and maintained by subculture at 37° C., were cultured in a 24-well plate for tissue culture. The protozoa in the number of about 10^5 were confirmed to be present. After the cells were treated with 50 μmol, 100 μmol and 500 μmol of compounds 1) to 3), they were cultured at 37° C. for 24 hours. Life and death of the protozoa was observed under microscope and scored. The medium used was Dulbecco Modified Eagle Medium manufactured by Dainihon-Seiyaku K. K. added with 10% bovine serum. Control was free of any of compounds 1 to 3).

For data set [2], the system named is Trypanosoma cruzi. The data set can be described thus: Anti-protozoan action 2 (in vitro), T. cruzi culture in GIT medium. In kind it is cell-based. The arrangement: key: +++: same number of protozoa alive as control; ++: slightly less number alive than control; +: less number alive than control; ±: only a few alive; -: all dead. Particulars: GIT medium (serum-free), 27° C., 120 hours. As to the method: Trypanosoma cruzi was cultured at 27° C. in a GIT medium (serum-free medium) manufactured by Nippon Seiyaku K. K. which was modified to contain […] of hemine. 50 μmol, 100 μmol, 250 μmol and 500 μmol of each of compounds 1) to 3) were added thereto. 120 hours later, life or death of the protozoa was observed under microscope and scored according to the criteria in Example 1. Control was free of any of compounds 1) to 3).

A further data set is described as follows: Acute toxicity. Particulars: mouse, in vivo, ip. From the text:
ICR mice were intraperitoneally administered with compound 1) for the acute toxicity test. Observation was continued for 14 days after the administration.

Data set [3] relates to Trypanosoma cruzi (Tulahuen strain). In words: Anti-protozoan action (in vivo), survival of infected ICR mice (Example 3). On the set-up: species or system Trypanosoma cruzi (Tulahuen strain) in male ICR mice. The note with it: 200 mg/kg on days 5-9; 400,000 T. cruzi i.p.; all of 3 mice; control 14-15 days. How it is done: Trypanosoma cruzi (Tulahuen strain) in the number of 400,000 was intraperitoneally administered to a group of 4 week old male ICR mice. At each of fifth, sixth, seventh, eighth and ninth day of the administration,200 mg/kg of compound 1) was given to the mice. Control group was given saline solution instead of compound 1). The anti-protozoan effect of compound 1) was determined based on the days of survival of the mice.

Data set [4] shares this test system. The data set can be described thus: Anti-protozoan action (in vivo), survival of infected C3H/Hecrj mice (Example 4). The arrangement: species or system Trypanosoma cruzi (Tulahuen strain) in male C3H/Hecrj mice. The note with it: 200 mg/kg on days 4-8; 200,000 T. cruzi i.p.; 4 mice; control 12 days. How it is done: Trypanosoma cruzi (Tulahuen strain) in the number of 200,000 was intraperitoneally administered to a group of 5 week old male C3H/Hecrj mice. At each of fourth, fifth, sixth, seventh and eighth day of the administration, 200 mg/kg of compound 1) was given to the mice. Control group was given saline solution instead of compound 1). The anti-protozoaneffect of compound 1) was determined based on the days of survival of the mice.

The test system of data set [5] is Trypanosoma cruzi (Tulahuen Strain). In words: Deaths and presence of protozoa in infected ICR mice, compound 1) with or without anionic copolymer (Example 5). In kind it is in vivo, Trypanosoma cruzi (Tulahuen Strain) in ICR male mice. How it is done: Five groups (Groups 1 to 5) of four week old ICR male mice, each group consisting of 3 mice, were provided. Group 2 and Group 5 mice were given 4.4 mg of acrylic acid-diisobutylvinyl ether copolymer (monomer ratio=1:1, average molecular weight=1.29×10^5) as dissolved in a 0.2 ml saline. On the second day, all animals were intraperitoneally given Trypanosoma cruzi (Tulahuen Strain) in the number of 40,000 for each. On the fifth, sixth, seventh, eighth and ninth day of the administration of the Tripanosoma, Group 1 and Group 2 mice were given saline, and Group 3 and Group 5 mice were given compound 1) (200 mg/kg) as dissolved in saline. Group 4 mice were intraperitoneally given 4.4 mg of acrylic acid-diisobutyl vinyl ether copolymer (monomer ratio=1:1, average molecular weight=1.29×10^5) and compound 1) (200 mg/kg) on the fifth day of the administration of the Trypanosoma, and on the sixth, seventh, eighth and ninth day of the administration, compound 1) (200 mg/kg) was intraperitoneally administered. Observation was continued until 60 th day of administration of Trypanosoma. The mice which were alive on the 60th day were killed and dissected to check the presence or absence of the protozoa in blood, the heart and in the liver under microscope.

Where [6] appears, read: ICR mice, intraperitoneal, observation 14 days.

The LD50 is the dose expected to kill half of the subjects tested. Consider `O=[N+]([O-])c1nccn1[C@H]1O[C@H](CO)[C@@H](O)[C@H]1O` [Compound 3)], for which the results for the “Life and death of the protozoa, score” value in the data set with Trypanosoma cruzi [1] (50 μmol), in the data set with Trypanosoma cruzi [1] (100 μmol) and with Trypanosoma cruzi [1] (500 μmol) were “++”, “++” and “+”, respectively. Also, the “Life or death of the protozoa, score” value with Trypanosoma cruzi [2] (50 μmol) is on record as “+++”; in the data set on Trypanosoma cruzi [2] (100 μmol), “+++”; with Trypanosoma cruzi [2] (250 μmol), “+++”; with Trypanosoma cruzi [2] (500 μmol), “+”. For the same compound, in “Acute toxicity” (setting [6]), the LD50 at 336 h was above 5000 mg/kg.

For the compound `O=[N+]([O-])c1nccn1COCC=CCO` [Compound 1)], the “Life and death of the protozoa, score” value in the data set with Trypanosoma cruzi [1] (50 μmol) was “±”; with Trypanosoma cruzi [1] (100 μmol), “-”; in the data set on Trypanosoma cruzi [1] (500 μmol), “-”. Besides, the “Life or death of the protozoa, score” value is reported as “++” with Trypanosoma cruzi [2] (50 μmol), “++” with Trypanosoma cruzi [2] (100 μmol), “+” in the data set with Trypanosoma cruzi [2] (250 μmol) and “-” in the data set with Trypanosoma cruzi [2] (500 μmol). Besides, the “days of survival of the mice” value in data set [3] was “more than 50 days”; in data set [4] it was “more than 20 days”. In addition, the “Number of Dead Samples” value in data set [5] (Group 3: compound 1) 200 mg/kg on days 5-9) came out at 0. For the same compound, the “death in the groups given compound 1)” value in data set [5] (Group Nos. 3, 4 and 5) is “no death”. Moreover, in “Acute toxicity”, the median lethal dose (LD50) at 336 h is 830 mg/kg.

Regarding `O=[N+]([O-])c1nccn1COC(CO)CO` [Compound 2)], the “Life and death of the protozoa, score” value is reported as “++” in the data set on Trypanosoma cruzi [1] (50 μmol), “++” with Trypanosoma cruzi [1] (100 μmol) and “-” in the data set with Trypanosoma cruzi [1] (500 μmol). For the same compound, the “Life or death of the protozoa, score” value in the data set on Trypanosoma cruzi [2] (50 μmol), in the data set with Trypanosoma cruzi [2] (100 μmol), in the data set with Trypanosoma cruzi [2] (250 μmol) and with Trypanosoma cruzi [2] (500 μmol) was “+++” in each case. For the same compound, the median lethal dose (LD50) at 336 h in the data set “Acute toxicity” (setting [6]) turned out to be 4300 mg/kg.
